How the values were obtained:
[1] = target: Fibroblast growth factor receptor 1 (Homo sapiens, UniProt P11362); details: at 10 µM
[2] = target: T1, Cyclin-G-associated kinase (Homo sapiens) (UniProt O14976); details: at 10 µM
T1 sequence (whole entry): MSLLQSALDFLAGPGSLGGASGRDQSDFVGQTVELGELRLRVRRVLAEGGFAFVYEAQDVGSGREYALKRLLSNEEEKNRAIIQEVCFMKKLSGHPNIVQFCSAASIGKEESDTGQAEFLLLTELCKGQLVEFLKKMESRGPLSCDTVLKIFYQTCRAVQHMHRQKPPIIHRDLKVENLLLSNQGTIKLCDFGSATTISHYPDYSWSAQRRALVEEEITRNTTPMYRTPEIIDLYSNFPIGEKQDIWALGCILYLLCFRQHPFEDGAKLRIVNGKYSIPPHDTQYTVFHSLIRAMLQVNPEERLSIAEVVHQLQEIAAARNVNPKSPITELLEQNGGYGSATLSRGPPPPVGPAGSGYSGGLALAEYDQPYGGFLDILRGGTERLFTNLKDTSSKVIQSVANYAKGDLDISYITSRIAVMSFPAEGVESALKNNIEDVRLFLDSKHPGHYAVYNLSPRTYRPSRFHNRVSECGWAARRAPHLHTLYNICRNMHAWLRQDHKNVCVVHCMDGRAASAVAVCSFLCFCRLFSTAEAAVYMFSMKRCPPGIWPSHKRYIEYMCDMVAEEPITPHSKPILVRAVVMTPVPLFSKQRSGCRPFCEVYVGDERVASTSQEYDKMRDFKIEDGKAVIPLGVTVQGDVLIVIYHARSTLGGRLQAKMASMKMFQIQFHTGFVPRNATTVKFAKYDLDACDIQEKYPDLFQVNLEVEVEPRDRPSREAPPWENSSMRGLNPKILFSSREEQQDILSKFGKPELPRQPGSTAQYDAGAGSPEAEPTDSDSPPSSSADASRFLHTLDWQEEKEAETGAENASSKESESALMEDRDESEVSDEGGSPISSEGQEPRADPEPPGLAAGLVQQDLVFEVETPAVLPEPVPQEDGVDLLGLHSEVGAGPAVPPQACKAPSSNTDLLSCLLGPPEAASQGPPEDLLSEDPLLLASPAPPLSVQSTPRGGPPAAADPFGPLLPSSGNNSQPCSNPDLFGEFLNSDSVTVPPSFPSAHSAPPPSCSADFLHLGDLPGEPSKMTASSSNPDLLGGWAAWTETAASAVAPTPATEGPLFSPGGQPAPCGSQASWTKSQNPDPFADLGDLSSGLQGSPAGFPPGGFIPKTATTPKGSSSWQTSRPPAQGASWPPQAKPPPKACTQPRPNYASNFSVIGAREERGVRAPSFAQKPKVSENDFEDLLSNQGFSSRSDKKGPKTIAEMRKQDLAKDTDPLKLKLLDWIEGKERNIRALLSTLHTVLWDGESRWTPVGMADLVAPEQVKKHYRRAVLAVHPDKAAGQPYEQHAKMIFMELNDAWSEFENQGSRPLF

[3] = target: Tyrosine-protein kinase Fes/Fps (Homo sapiens) (UniProt P07332); test: Selectivity interaction (KinomeScan (DiscoverX)) EUB0000229b FES; details: at 10 µM
[4] = target: T2, Serine/threonine-protein kinase ULK2 (Homo sapiens) (UniProt Q8IYT8); test: Selectivity interaction (KinomeScan (DiscoverX)) EUB0001619a ULK2; details: at 1 µM
T2 sequence (whole entry): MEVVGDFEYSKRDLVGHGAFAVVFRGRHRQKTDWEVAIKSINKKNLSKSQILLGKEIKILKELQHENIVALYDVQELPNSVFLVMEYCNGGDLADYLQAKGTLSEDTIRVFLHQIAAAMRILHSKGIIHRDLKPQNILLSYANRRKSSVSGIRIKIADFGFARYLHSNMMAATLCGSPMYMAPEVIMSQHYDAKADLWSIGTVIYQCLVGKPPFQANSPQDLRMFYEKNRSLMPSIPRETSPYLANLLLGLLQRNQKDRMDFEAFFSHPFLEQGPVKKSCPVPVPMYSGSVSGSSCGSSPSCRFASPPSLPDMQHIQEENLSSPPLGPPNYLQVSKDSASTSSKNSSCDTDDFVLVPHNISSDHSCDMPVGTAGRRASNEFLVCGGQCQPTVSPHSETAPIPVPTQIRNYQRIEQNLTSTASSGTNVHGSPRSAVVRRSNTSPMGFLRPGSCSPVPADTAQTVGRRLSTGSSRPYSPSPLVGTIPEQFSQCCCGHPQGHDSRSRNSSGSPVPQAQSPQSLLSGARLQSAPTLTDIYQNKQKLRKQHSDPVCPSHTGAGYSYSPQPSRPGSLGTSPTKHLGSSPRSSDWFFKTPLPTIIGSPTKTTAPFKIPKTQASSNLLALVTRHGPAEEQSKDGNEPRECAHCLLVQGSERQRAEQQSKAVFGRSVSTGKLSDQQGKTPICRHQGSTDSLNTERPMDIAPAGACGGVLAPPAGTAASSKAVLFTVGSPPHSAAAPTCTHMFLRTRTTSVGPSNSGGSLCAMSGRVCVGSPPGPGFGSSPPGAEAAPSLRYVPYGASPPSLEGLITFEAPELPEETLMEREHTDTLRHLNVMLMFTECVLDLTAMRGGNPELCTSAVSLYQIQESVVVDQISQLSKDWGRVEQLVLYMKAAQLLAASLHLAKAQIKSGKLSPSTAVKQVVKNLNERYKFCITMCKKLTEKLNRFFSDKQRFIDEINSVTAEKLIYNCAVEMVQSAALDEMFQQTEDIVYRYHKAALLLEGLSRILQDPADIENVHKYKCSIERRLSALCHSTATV

[5] = target: Tyrosine-protein kinase Fgr (Homo sapiens) (UniProt P09769); test: Selectivity interaction (KinomeScan (DiscoverX)) EUB0000666a FGR; details: at 10 µM
Chain of Tyrosine-protein kinase Fgr (Homo sapiens) (P09769 2-529 limits assumed): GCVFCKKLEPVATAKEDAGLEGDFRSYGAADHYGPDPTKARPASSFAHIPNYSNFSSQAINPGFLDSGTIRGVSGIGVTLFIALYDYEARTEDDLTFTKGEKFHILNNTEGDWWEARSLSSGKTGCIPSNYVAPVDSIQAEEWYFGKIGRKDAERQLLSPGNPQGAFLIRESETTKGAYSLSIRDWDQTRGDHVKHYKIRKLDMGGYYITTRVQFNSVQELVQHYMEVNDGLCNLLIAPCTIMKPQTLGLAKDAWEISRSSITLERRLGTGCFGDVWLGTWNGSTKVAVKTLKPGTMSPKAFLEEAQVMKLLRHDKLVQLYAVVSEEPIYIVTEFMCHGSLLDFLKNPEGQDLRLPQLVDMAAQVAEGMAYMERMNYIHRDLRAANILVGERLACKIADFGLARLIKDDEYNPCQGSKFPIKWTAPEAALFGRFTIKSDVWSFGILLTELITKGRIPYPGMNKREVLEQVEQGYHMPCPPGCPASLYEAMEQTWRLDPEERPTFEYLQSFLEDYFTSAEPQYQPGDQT

Chain of Fibroblast growth factor receptor 1 (P11362 22-822 limits assumed): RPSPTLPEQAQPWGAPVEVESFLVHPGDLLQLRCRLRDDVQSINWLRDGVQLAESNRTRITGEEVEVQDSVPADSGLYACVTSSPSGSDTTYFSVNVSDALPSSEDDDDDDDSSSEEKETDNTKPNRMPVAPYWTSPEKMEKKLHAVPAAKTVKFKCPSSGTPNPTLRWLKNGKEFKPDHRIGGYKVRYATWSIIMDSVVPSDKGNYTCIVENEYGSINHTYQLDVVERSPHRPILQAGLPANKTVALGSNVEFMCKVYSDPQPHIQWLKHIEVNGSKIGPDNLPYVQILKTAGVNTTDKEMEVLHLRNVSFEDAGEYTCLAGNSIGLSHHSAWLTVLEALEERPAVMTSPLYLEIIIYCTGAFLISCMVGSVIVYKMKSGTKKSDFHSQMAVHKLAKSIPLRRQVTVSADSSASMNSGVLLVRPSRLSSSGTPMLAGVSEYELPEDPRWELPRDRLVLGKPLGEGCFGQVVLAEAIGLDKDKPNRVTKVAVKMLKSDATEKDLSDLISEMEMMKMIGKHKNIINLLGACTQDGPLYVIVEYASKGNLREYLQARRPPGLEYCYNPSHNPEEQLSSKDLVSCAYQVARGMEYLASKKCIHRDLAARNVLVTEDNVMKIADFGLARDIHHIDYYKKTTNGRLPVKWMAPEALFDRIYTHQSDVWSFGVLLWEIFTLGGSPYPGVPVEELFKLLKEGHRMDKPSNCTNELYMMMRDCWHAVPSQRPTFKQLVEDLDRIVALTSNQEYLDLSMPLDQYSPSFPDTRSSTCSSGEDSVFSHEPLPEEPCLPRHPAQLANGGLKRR
Chain of Tyrosine-protein kinase Fes/Fps (Homo sapiens) (P07332 whole entry): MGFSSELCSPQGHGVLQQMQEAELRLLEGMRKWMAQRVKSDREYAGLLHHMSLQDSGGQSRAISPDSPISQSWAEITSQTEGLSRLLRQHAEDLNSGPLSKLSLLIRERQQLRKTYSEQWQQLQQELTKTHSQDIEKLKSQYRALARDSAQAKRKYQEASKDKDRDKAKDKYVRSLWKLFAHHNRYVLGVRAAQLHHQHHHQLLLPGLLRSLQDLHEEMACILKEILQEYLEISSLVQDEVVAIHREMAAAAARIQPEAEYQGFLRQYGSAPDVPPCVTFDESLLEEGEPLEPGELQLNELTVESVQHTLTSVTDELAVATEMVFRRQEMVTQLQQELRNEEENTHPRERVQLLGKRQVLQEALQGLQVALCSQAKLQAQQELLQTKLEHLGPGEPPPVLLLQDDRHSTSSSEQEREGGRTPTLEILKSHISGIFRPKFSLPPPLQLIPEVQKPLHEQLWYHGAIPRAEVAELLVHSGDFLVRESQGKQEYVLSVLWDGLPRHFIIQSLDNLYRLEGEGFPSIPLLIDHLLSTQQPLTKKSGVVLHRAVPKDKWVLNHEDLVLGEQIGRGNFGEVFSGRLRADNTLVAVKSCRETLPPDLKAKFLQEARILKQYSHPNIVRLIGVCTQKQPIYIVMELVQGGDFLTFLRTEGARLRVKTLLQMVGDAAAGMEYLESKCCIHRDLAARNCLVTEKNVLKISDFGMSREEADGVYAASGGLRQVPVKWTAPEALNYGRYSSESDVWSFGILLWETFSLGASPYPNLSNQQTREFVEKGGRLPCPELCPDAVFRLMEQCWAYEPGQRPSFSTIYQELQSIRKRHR

Work on CCN(CC)CCCCNc1ncc2cc(-c3cc(OC)cc(OC)c3)c(NC(=O)NC(C)(C)C)nc2n1 yielded a % of control [1] of 0.4% and a % of control [2] of 100%.
In the case of COc1cc(N(C)c2ccnc3ccc(C(F)(F)F)cc23)cc(OC)c1OC, the % binding [3] is reported as 100%.
Compound N#Cc1cccc(-c2c[nH]c3ncnc(N4CCOCC4)c23)c1 has a % of control [4] of 69%.
Compound O=C(NOC[C@H](O)CO)c1ccc(F)c(F)c1Nc1ccc(I)cc1F has a % of control [5] of 95%.

Source: ChEMBL document CHEMBL5465560, “Selectivity Literature for EUbOPEN Chemogenomic Library” (2024)
